Some test systems named below: MDA-MB-435 melanoma; DU-145 prostate; M14 melanoma; SK-MEL-28 melanoma; BT-549 breast; HOP-92 NSCLC; OVCAR-8 ovarian; UACC-257 melanoma; MDA-MB-231 breast; HOP-62 NSCLC; OVCAR-3 ovarian; MDA-MB-468 breast.
Holding throughout (assay): NCI-60 cell line screen, 384-well format

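GI50 = concentration required for 50% inhibition of growth. TGI: concentration producing complete growth inhibition.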

As to `Cn1c(Nc2ccc(C(F)(F)F)cc2)nc2cc(Oc3ccnc(-c4ncc(C(F)(F)F)[nH]4)c3)ccc21`, the GI50 with MDA-MB-435 melanoma is 0.0476 µM; in the test with DU-145 prostate, 0.0352 µM; with M14 melanoma, 0.0184 µM; with SK-MEL-28 melanoma it was 0.046 µM; with BT-549 breast, 0.182 µM; in the test on HOP-92 NSCLC, 0.584 µM. For the same compound, the GI50 is 0.493 µM with OVCAR-8 ovarian; 0.137 µM with UACC-257 melanoma; 0.0367 µM in the test on MDA-MB-231 breast; 0.608 µM with HOP-62 NSCLC; 0.158 µM in the test on OVCAR-3 ovarian; 0.0741 µM with MDA-MB-468 breast. Besides, the TGI in the test with MDA-MB-435 melanoma worked out at 5.88 µM; in the test with DU-145 prostate, 13.6 µM; with M14 melanoma it was 0.332 µM; with SK-MEL-28 melanoma it was 0.408 µM; in the test with BT-549 breast, 11.3 µM; with HOP-92 NSCLC it was 6 µM. The TGI was 10.6 µM in the test on OVCAR-8 ovarian; 1.51 µM in the test with UACC-257 melanoma; 1.8 µM in the test on MDA-MB-231 breast; 11.4 µM in the test on HOP-62 NSCLC; 2.46 µM with OVCAR-3 ovarian; 0.825 µM in the test with MDA-MB-468 breast.

As to `CN1CC[C@@H](c2c(O)cc(O)c3c(=O)cc(-c4ccc(C(F)(F)F)cc4Cl)oc23)[C@@H]1CO`, the GI50 in the test on MDA-MB-435 melanoma is 20.5 µM; with DU-145 prostate, 15.5 µM; in the test on M14 melanoma, 17 µM; in the test with SK-MEL-28 melanoma it was 13.5 µM; in the test on BT-549 breast, 14.6 µM; with HOP-92 NSCLC, 12.7 µM. For the same compound, the GI50 in the test with OVCAR-8 ovarian is 14.2 µM; with UACC-257 melanoma, 12.4 µM; in the test with MDA-MB-231 breast it was 15.9 µM; with HOP-62 NSCLC, 14.4 µM; in the test with OVCAR-3 ovarian it was 12.7 µM; in the test with MDA-MB-468 breast it was 11.8 µM. The TGI in the test with MDA-MB-435 melanoma amounted to 34.9 µM; in the test with DU-145 prostate, 29.3 µM; in the test on M14 melanoma it was 30.8 µM; in the test on SK-MEL-28 melanoma, 26.4 µM; in the test with BT-549 breast it was 27.8 µM; with HOP-92 NSCLC it was 25.3 µM. Moreover, the TGI in the test on OVCAR-8 ovarian came to 27.4 µM; with UACC-257 melanoma, 24.9 µM; in the test on MDA-MB-231 breast it was 29.9 µM; in the test with HOP-62 NSCLC, 27.7 µM; in the test with OVCAR-3 ovarian, 25.9 µM; with MDA-MB-468 breast it was 24.1 µM.
